Holding throughout (conditions): at 1 µM
Test [1] concerns the target Receptor-type tyrosine-protein kinase FLT3 (Homo sapiens) (UniProt P36888). Put plainly: (§1) Selectivity interaction (KinomeScan (DiscoverX)) EUB0001079a FLT3.
Test [2] deals with T1, Receptor-type tyrosine-protein kinase FLT3 (Homo sapiens), P36888 [K663Q].
T1 sequence (whole entry): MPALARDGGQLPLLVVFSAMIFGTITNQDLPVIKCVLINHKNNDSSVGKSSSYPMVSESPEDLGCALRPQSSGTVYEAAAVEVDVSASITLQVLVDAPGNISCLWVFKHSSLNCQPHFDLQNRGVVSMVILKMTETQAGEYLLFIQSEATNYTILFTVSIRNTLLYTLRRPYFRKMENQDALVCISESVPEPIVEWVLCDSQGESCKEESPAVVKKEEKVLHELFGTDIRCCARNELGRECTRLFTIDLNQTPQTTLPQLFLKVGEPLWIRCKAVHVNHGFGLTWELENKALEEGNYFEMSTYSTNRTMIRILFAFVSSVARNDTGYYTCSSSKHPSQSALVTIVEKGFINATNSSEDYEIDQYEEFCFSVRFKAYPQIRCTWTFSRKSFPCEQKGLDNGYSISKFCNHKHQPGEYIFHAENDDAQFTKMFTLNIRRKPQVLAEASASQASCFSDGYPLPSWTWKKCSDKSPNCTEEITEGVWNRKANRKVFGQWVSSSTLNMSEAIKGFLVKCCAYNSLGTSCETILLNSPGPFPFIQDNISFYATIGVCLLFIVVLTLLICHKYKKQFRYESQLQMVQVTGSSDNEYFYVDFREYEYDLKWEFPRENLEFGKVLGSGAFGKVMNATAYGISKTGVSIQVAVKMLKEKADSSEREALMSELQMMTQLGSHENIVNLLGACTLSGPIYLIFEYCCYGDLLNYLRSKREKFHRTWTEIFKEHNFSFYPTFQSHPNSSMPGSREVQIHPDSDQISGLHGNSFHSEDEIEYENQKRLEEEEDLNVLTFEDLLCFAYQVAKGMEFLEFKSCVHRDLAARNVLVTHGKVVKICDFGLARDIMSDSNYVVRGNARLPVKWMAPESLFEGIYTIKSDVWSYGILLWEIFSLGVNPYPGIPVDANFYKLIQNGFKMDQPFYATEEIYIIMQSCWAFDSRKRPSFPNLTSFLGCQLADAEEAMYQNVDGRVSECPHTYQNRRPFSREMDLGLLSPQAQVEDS
Described as §1.

Test [3] has as its system T2, Receptor-type tyrosine-protein kinase FLT3 (Homo sapiens), P36888 [N841I].
T2 sequence (whole entry): T1 sequence (whole entry) with Q663K, N841I
The test is described as §1.

In test [4] the test system is T3, Receptor-type tyrosine-protein kinase FLT3 (Homo sapiens), P36888 [R834Q].
T3 sequence (whole entry): T1 sequence (whole entry) with Q663K, R834Q
The test is described as §1.

% of control data for one compound are collected here from ChEMBL document CHEMBL5465560, “Selectivity Literature for EUbOPEN Chemogenomic Library” (2024).

Numbering of substitutions follows the chain as printed.

For the compound `Nc1cnc(N2CCc3cc(S(=O)(=O)Nc4c(F)cc(Cl)cc4F)cc(N4CCCC4=O)c32)nc1` [TP-020n], the % of control in test [1] was found to be 81%; in test [2] it was 97%; in test [3], 89%; in test [4] it was 77%.
